Biological target: Huntingtin (Homo sapiens, UniProt P42858)
Sequence (P42858 whole entry): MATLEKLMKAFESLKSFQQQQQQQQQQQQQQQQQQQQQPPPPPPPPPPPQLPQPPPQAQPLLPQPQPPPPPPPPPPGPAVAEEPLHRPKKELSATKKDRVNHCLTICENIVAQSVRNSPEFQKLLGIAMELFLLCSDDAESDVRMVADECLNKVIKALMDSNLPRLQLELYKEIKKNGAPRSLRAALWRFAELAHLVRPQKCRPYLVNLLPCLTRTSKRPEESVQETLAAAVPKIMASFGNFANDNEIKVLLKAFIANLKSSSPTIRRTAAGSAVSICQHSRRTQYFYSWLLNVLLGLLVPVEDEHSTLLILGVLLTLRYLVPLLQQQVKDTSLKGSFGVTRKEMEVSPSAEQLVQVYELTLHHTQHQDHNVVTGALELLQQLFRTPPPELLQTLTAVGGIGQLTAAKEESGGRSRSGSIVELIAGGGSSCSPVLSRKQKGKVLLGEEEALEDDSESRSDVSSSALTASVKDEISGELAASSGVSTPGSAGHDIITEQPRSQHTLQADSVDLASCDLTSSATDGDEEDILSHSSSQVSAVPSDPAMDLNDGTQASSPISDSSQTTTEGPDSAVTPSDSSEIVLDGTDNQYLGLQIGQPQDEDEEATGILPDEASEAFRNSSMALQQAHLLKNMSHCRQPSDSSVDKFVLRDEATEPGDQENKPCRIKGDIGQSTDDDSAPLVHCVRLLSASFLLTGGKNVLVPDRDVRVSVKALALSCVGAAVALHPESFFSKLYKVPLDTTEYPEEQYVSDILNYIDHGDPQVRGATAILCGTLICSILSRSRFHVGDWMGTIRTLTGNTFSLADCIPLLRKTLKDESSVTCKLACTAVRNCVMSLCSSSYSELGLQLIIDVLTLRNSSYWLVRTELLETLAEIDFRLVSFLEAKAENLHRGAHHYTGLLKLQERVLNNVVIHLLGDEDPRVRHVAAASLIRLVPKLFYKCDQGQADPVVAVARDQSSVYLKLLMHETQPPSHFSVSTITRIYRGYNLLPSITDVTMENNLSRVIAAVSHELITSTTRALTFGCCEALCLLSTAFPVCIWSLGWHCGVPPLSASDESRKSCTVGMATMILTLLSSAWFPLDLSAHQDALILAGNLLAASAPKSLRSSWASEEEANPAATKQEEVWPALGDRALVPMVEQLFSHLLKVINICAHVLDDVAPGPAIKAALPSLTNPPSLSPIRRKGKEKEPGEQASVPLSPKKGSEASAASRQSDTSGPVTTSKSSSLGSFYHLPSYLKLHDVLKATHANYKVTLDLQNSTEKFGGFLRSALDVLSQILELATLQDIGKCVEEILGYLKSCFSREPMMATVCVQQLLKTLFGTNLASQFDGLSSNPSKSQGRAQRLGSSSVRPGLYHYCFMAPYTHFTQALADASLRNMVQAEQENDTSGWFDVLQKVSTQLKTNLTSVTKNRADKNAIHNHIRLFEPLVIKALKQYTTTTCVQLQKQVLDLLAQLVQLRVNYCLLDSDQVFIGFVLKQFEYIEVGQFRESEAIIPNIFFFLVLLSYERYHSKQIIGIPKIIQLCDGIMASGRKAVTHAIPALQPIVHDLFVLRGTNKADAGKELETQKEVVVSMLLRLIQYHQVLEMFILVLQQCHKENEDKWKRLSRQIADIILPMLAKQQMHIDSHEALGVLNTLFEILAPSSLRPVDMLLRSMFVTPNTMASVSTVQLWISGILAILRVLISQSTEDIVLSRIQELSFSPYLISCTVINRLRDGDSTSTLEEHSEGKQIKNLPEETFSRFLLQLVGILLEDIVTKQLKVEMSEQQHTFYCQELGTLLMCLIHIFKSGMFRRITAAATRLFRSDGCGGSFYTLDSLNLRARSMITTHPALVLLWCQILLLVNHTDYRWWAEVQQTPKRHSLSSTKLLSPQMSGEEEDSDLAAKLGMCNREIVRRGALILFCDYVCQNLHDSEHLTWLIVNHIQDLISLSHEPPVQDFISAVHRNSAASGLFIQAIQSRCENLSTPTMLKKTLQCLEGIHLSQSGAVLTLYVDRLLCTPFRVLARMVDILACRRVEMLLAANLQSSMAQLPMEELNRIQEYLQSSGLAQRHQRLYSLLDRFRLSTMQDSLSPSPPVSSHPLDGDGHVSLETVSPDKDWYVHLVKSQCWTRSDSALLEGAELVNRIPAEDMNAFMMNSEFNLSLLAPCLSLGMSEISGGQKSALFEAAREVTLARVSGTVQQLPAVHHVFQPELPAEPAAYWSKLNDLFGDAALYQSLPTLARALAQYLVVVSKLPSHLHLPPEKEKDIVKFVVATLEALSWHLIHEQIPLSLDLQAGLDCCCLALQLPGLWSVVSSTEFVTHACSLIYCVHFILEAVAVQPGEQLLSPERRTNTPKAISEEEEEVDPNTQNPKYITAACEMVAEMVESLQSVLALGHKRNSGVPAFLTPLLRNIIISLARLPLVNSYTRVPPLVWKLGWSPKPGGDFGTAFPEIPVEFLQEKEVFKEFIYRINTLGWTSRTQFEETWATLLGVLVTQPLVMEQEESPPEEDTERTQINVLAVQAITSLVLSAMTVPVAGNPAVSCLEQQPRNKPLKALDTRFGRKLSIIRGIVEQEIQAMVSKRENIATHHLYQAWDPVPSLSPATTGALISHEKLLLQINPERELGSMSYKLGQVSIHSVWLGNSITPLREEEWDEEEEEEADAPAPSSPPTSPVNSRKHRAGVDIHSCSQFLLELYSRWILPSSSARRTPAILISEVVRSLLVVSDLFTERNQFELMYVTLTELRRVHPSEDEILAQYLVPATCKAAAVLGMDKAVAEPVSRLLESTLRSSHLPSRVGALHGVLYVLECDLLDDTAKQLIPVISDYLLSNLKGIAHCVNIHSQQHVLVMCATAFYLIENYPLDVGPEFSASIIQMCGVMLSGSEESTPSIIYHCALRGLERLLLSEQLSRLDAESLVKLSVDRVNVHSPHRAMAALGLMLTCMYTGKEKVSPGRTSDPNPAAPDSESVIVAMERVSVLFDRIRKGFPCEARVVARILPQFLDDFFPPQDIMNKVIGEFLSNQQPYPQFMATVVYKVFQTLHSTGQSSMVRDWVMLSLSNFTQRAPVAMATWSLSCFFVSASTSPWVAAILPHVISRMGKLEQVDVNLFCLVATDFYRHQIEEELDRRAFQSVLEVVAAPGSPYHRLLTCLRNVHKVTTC

IC50	SMILES
5190 nM	CC(=NNC(=N)Sc1cc(O)n(-c2cccc(Cl)c2)c1O)c1cccs1 [MLS000579124]
6140 nM	N#CC(C(=O)Nc1ccc(Cl)cc1)C(=S)Nc1ccccc1 (stereo unspecified) [(Z)-3-anilino-N-(4-chlorophenyl)-2-cyano-3-sulfanylprop-2-enamide]
1190 nM	Cc1cc(N2C(=O)C(=O)C(C(=O)c3cc4ccccc4o3)C2c2cccc(Cl)c2)no1 (stereo unspecified) [3-(1-benzofuran-2-ylcarbonyl)-2-(3-chlorophenyl)-1-(5-methyl-1,2-oxazol-3-yl)-4-oxidanyl-2H-pyrrol-5-one]
5070 nM	Cc1ccc2c(c1)C(=NNc1cccc(C(=O)O)c1)C(=O)N2C [3-[(2Z)-2-(1,5-dimethyl-2-oxidanylidene-indol-3-ylidene)hydrazinyl]benzoic acid]
7760 nM	CCCOc1ccc(-n2c(O)cc(SC(=N)NN=C(C)c3cccs3)c2O)cc1 [2,5-dioxo-1-(4-propoxyphenyl)-3-pyrrolidinyl 2-[1-(2-thienyl)ethylidene]hydrazinecarbimidothioate]
5380 nM	N#CC1=c2sc(=Cc3ccco3)c(=O)n2C(=N)C(C#N)C1c1ccco1 (stereo unspecified) [5-amino-7-(furan-2-yl)-2-(furan-2-ylmethylidene)-3-oxo-7H-[1,3]thiazolo[3,2-a]pyridine-6,8-dicarbonitrile]
2890 nM	O=C(O)c1ccc(-n2c(O)cc(SC(=Nc3ccc(F)cc3)NCc3ccc4c(c3)OCO4)c2O)cc1 [SMR000313486]
3350 nM	CC(C)c1ccc(C2c3[nH]c4ccccc4c3Cc3c(O)n(-c4ccccc4C(=O)N4CCC[C@H]4C(=O)O)c(=O)n32)cc1 (stereo partly specified)
2040 nM	COc1ccc2nc(N3C(=O)C(=O)C(C(=O)c4ccco4)C3c3ccc(OC)c(OC)c3)sc2c1 (stereo unspecified) [2-(3,4-dimethoxyphenyl)-3-(furan-2-carbonyl)-4-hydroxy-1-(6-methoxy-1,3-benzothiazol-2-yl)-2H-pyrrol-5-one]
7400 nM	CCOC(=O)C1=C(C)N=C(SCc2cc(=O)[nH][nH]2)C(C#N)C1c1cccs1 (stereo unspecified) [5-cyano-2-methyl-6-[(5-oxo-1,2-dihydropyrazol-3-yl)methylthio]-4-thiophen-2-yl-1,4-dihydropyridine-3-carboxylic acid ethyl ester]
624 nM	Cc1ccc2nc(N3C(=O)C(=O)C(C(=O)c4ccco4)C3c3ccc(C)o3)sc2c1 (stereo unspecified) [3-[2-furanyl(oxo)methyl]-4-hydroxy-1-(6-methyl-1,3-benzothiazol-2-yl)-2-(5-methyl-2-furanyl)-2H-pyrrol-5-one;oxalic acid]
2490 nM	CC(=O)C1C(=O)C(=O)N(c2cc(C(C)(C)C)on2)C1c1ccc(Br)cc1 (stereo unspecified)
2840 nM	CC(C)c1ccc(C2c3[nH]c4ccccc4c3Cc3c(O)n(-c4ccccc4C(=O)N4CCC[C@@H]4C(=O)O)c(=O)n32)cc1 (stereo partly specified)
987 nM	O=C1C(=O)N(c2nc3ccc(Cl)cc3s2)C(c2ccco2)C1C(=O)c1ccco1 (stereo unspecified)
2280 nM	C=CCOc1c(OC)cc(CN=Nc2cccc(C(=O)O)c2)c(Br)c1Br
1900 nM	CCc1nnc(NS(=O)(=O)c2ccc(N=CCC(=O)c3ccc(C)cc3)cc2)s1 [SMR000211931]
4060 nM	CCCOc1cccc(C2C(C(=O)c3ccc(C)o3)C(=O)C(=O)N2c2nc(C)c(C(C)=O)s2)c1 (stereo unspecified)
2900 nM	COC1=CC(=Cc2c(-c3ccccc3)[nH]n(-c3ccc(NC(C)=O)cc3)c2=O)C=CC1=O [SMR000299432]
2570 nM	C=c1c(C#N)c2[nH]c(N)c(C#N)c(C)c-2c1=Cc1ccc(-c2ccccc2C(=O)O)o1 [SMR000277284]
2500 nM	Oc1ccc(CN=Nc2ccnc3cc(Cl)ccc23)c(O)c1O [SMR000590557]
636 nM	COC(=O)c1sc(N2C(=O)C(=O)C(C(=O)c3ccc(C)o3)C2c2ccc([N+](=O)[O-])cc2)nc1C (stereo unspecified) [methyl 2-[4-hydroxy-3-(5-methylfuran-2-carbonyl)-2-(4-nitrophenyl)-5-oxo-2H-pyrrol-1-yl]-4-methyl-1,3-thiazole-5-carboxylate]
8270 nM	N=C(NN=Cc1cccs1)Sc1cc(O)n(-c2ccc(Br)cc2)c1O [[1-(4-bromophenyl)-2,5-dioxopyrrolidin-3-yl] N'-[(E)-thiophen-2-ylmethylideneamino]carbamimidothioate]
5730 nM	Cc1[nH]n(C(N)=S)c(=O)c1N=Nc1c(Br)cc(Br)cc1Br [3-methyl-5-oxo-4-[(2,4,6-tribromophenyl)diazenyl]-4H-pyrazole-1-carbothioamide]
1470 nM	N#CC1C(=O)NC(c2ccc(-c3cc(Cl)ccc3Cl)o2)N(c2ccccc2)C1=S (stereo unspecified) [MLS000592167]
7570 nM	N#CC(C#N)C(=Nc1ccc(F)cc1)SCc1cccc(Br)c1 [2-[(3-bromophenyl)methylsulfanyl-[(4-fluorophenyl)amino]methylidene]propanedinitrile]

SMILES	IC50
CCN(CC)C(=O)NC1CC2CCCC(C1)N2Cc1ccccc1 (stereo unspecified) [1,1-diethyl-3-[9-(phenylmethyl)-9-azabicyclo[3.3.1]nonan-3-yl]urea]	2830 nM

From BindingDB's records for doi:10.7270/Q2N58K09 (The Scripps Research Institute Molecular Screening Center, 2013)
